Laboratory results from PMC8151276, “An Integrated Approach toward NanoBRET Tracers for Analysis of GPCR Ligand Engagement” (Molecules, 2021).

Key:
Format in all cases: binding
GCGR = target: T1, GCGR (Homo sapiens, UniProt P47871); test: NanoBRET screen HiBiT-GCGR in HEK293
T1 construct: purchased Promega (in-house HiBiT-GPCR construct library, NanoBRET)
Protocol: (§1) Each tracer candidate was screened across the entire library of HiBiT-GPCR constructs using NanoBRET as the detection modality. As depicted in Figure 4A, the specificity of interactions was evaluated through decrease in BRET due to competitive displacement of a bound tracer by excess parental compound. Each tracer was analyzed for binding to each HiBiT-GPCR fusion in the absence and in the presence of competing parental compound. Briefly, HEK293 cells were transfected with HiBiT-GPCR constructs diluted into promoterless DNA to reduce expression and maximize translocation to the cell surface. Each tracer candidate was then screened at concentrations of 1 μM and 0.1 μM across cells expressing these fusions. Cells were treated for 1.5 h with tracer either alone or in the presence of 20 μM competing parental compound (i.e., control). BRET was measured upon addition of purified LgBiT and subsequent complementation with HiBiT genetically fused to a GPCR. The specificity of interactions was assessed through a decrease in BRET signal due to competitive displacement of the bound tracer. To further gauge the robustness of these interactions, the fold response over the control (i.e., BRETtracer/BRETcontrol) was calculated. We chose a 1.5-fold response, which translates to ≥7-fold signal over noise as the minimal threshold required to score an interaction as positive. […]. Below we highlight the screening results obtained for our exemplary fluorescent tracers based on Clozapine, Amitriptyline and AZD1283.
(§2) HiBiT-GPCR DNA constructs were diluted in 10 mM Tris pH 8 to a final concentration of 0.01 μg/μL, arrayed in 96-well plates and stored at −20 °C. For transfection, HEK293 cells were suspended in Opti-MEM (without phenol red) supplemented with 2% fetal bovine serum (Seradigm) and 100 units/mL penicillin–streptomycin (Gibco) at a final concentration of 220,000 cells/mL and dispensed into white 96-well plates at 90 μL/well. Subsequent transfections and screens were carried using an Agilent Bravo Automated Liquid Handling Platform. First, the 96-well HiBiT DNA arrays were diluted 25-fold in Opti-MEM (without serum or phenol red) to a final concentration of 0.0004 μg/μL and 20 μL of the diluted DNAs were transferred into new 96-well plates. Next, promoterless carrier DNA (1 μg/μL) was diluted 25-fold (0.04 μg/μL) and then dispensed into the diluted arrays at 20 μL/well. Following brief mixing, Viafect transfection reagent (Promega) diluted 16-fold into Opti-MEM was dispensed into the plates at 40 μL/well. After mixing by pipetting, plates were incubated for 10 min on the pipetting station deck. The DNA-transfection reagent complexes were then added to plates containing cells. To facilitate the screen, 10 μL of DNA-transfection reagent complexes were added in duplicates to the top 4 and bottom 4 rows, resulting in two identical 48-well arrays per plate. Plates with transfected cells were incubated for 18–20 h at 37 °C/5% CO2. A screen of each tracer across the entire library using two different concentrations requires duplicate plates of transfected cells. Depending on the number of tracers being screened, transfections can be scaled up using the same ratios. The next day, for each tracer, four 20× screening solutions in tracer dilution buffer (Promega) were prepared: two duplicates at final concentration of 20 μM and two duplicates at a final concentration of 2 μM. A competing unmodified compound was added to one of each duplicate at a final concentration of 400 μM. The four resulting solutions were diluted 4-fold in Opti-MEM without serum or phenol red to generate 5× solutions (5 µM and 0.5 µM tracer +/− 100 μM competing compound). To screen the library, a BioTek MultiFlo FX liquid dispenser was used to dispense 22.5 µL of tracer solution to the top 4 rows and 22.5 µL tracer + competing compound solution to the 4 bottom rows. Plates were briefly mixed on an orbital shaker and incubated for 1.5 h at room temperature. […]

CXCR4 = target: T2, CXCR4 (Homo sapiens, UniProt P61073); test: NanoBRET screen HiBiT-CXCR4 in HEK293
T2 construct: purchased Promega (in-house HiBiT-GPCR construct library, NanoBRET)
Protocol: as §1, §2

LGR6 = target: T3, LGR6 (Homo sapiens, UniProt Q9HBX8); test: NanoBRET screen HiBiT-LGR6 in HEK293
T3 construct: purchased Promega (in-house HiBiT-GPCR construct library, NanoBRET)
T3 sequence (Q9HBX8 25-967): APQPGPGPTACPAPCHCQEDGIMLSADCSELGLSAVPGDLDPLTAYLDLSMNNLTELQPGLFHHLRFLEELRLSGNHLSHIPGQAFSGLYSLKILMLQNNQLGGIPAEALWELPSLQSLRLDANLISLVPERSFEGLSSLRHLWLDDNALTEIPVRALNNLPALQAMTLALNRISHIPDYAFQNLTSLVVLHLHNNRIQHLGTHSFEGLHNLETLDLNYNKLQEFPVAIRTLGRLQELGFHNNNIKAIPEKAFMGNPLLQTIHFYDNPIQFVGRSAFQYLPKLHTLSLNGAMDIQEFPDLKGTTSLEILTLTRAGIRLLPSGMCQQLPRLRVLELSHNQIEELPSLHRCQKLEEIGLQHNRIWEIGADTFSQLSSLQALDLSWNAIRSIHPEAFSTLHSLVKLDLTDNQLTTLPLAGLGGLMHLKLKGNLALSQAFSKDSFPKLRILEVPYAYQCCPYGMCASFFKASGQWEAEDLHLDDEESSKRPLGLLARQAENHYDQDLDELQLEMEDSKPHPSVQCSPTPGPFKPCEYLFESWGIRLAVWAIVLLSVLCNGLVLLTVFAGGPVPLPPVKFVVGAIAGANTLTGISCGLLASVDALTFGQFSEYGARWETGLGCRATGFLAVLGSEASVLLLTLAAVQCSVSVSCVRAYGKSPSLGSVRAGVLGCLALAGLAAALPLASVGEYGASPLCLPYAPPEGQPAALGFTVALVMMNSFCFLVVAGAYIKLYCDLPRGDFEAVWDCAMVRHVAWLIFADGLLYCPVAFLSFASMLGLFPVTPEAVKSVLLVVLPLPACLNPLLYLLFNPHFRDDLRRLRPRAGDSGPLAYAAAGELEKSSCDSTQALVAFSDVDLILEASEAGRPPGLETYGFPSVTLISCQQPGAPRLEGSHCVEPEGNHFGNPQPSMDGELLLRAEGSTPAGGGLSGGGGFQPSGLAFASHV
Protocol: as §1, §2

FPR1 = target: T4, FPR1 (Homo sapiens, UniProt P21462); test: NanoBRET screen HiBiT-FPR1 in HEK293
T4 construct: purchased Promega (in-house HiBiT-GPCR construct library, NanoBRET)
T4 sequence (P21462 1-350): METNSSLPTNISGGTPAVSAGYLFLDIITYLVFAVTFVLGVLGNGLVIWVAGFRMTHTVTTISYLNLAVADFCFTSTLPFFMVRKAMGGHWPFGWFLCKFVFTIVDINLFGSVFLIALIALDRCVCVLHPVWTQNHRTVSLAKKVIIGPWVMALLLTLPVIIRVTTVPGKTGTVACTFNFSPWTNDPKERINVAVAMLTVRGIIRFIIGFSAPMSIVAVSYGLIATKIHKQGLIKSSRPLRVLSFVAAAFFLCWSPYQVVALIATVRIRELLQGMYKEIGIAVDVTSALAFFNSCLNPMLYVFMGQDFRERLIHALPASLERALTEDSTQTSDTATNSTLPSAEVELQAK
Protocol: as §1, §2

T1 sequence (P47871 26-477): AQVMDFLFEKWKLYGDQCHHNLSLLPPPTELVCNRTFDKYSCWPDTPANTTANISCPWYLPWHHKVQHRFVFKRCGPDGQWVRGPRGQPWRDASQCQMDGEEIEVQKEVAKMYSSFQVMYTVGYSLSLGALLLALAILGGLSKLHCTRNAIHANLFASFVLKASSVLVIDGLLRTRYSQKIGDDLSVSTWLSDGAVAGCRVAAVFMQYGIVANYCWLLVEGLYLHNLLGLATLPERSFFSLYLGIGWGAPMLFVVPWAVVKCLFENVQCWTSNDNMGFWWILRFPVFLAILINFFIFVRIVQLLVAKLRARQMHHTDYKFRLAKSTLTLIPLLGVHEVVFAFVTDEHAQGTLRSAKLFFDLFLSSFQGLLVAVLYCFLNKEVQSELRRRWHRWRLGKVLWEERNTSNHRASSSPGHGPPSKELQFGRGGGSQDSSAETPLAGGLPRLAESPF
T2 sequence (P61073 whole entry): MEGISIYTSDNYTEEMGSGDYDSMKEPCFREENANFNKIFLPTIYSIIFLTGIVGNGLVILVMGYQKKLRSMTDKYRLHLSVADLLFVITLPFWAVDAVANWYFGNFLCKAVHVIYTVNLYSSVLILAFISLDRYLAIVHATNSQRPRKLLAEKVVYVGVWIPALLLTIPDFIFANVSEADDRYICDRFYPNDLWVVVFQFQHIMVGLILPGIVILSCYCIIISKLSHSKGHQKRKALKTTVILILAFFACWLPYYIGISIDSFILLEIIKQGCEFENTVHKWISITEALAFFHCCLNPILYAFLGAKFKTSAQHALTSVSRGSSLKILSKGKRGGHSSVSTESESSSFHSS

SMILES | NanoBRET Fold Response (GCGR; GCGR, 0.1μM tracer) | NanoBRET Fold Response (GCGR; GCGR, 1μM tracer) | NanoBRET Fold Response (CXCR4; CXCR4, 0.1μM tracer) | NanoBRET Fold Response (CXCR4; CXCR4, 1μM tracer) | NanoBRET Fold Response (LGR6; LGR6, 0.1μM tracer) | NanoBRET Fold Response (LGR6; LGR6, 1μM tracer) | NanoBRET Fold Response (FPR1; FPR1, 0.1μM tracer) | NanoBRET Fold Response (FPR1; FPR1, 1μM tracer) | NanoBRET Fold Response (GCGR; GCGR, tracer 0.1μM) | NanoBRET Fold Response (GCGR; GCGR, tracer 1μM) | NanoBRET Fold Response (CXCR4; CXCR4, tracer 0.1μM) | NanoBRET Fold Response (CXCR4; CXCR4, tracer 1μM) | NanoBRET Fold Response (LGR6; LGR6, tracer 0.1μM) | NanoBRET Fold Response (LGR6; LGR6, tracer 1μM) | NanoBRET Fold Response (FPR1; FPR1, tracer 0.1μM) | NanoBRET Fold Response (FPR1; FPR1, tracer 1μM) | other results
CN1CCN(C2=Nc3cc(Cl)ccc3N(CC(=O)NCCOCCOCCOCCOCCNC(=O)CCc3ccc4n3[B-](F)(F)[N+]3=C(c5ccc[nH]5)C=CC3=C4)c3ccccc32)CC1 [Clozapine-c-2-NB590] | 0.99 | 1.02 | 1.04 | 0.97 | 0.89 | 0.91 | 0.98 | 1.04 |  |  |  |  |  |  |  |  | 
COc1ccc2[nH]c(-c3ccc(CNC(=O)CCOCCOCCOCCOCCNC(=O)CCc4ccc5n4[B-](F)(F)[N+]4=C(c6ccc[nH]6)C=CC4=C5)cc3)c(CCNC(C)=O)c2n1 [AzomelatoninICO9-2-NB590] |  |  |  |  |  |  |  |  |  |  |  |  |  |  |  |  | NanoBRET Fold Response (GCGR; 0.1μM tracer): 0.90; NanoBRET Fold Response (GCGR; 1μM tracer): 1.05; NanoBRET Fold Response (CXCR4; 0.1μM tracer): 1.00; NanoBRET Fold Response (CXCR4; 1μM tracer): 0.81; NanoBRET Fold Response (LGR6; 0.1μM tracer): 0.62; NanoBRET Fold Response (LGR6; 1μM tracer): 0.95; NanoBRET Fold Response (FPR1; 0.1μM tracer): 1.02; NanoBRET Fold Response (FPR1; 1μM tracer): 0.90
O=C(CCOCCOCCOCCOCCNC(=O)CCc1ccc2n1[B-](F)(F)[N+]1=C(c3ccc[nH]3)C=CC1=C2)NCCCN1CCN(C2=Nc3cc(Cl)ccc3Nc3ccccc32)CC1 [Clozapine-a-2-NB590] | 0.94 | 1.14 | 1.04 | 0.85 | 1.03 | 0.66 | 1.01 | 1.22 |  |  |  |  |  |  |  |  | 
CCCn1c(=O)c2[nH]c(-c3ccc(OCC(=O)NCCNC(=O)CCOCCNC(=O)c4ccc(CNC(=O)CCc5ccc6n5[B-](F)(F)[N+]5=C(c7ccc[nH]7)C=CC5=C6)cc4)cc3)nc2n(CCC)c1=O [XAC-3-NB590] |  |  |  |  |  |  |  |  | 1.03 | 0.96 | 0.90 | 0.92 | 0.99 | 0.90 | 1.15 | 1.10 | 
O=C(CCc1ccc2n1[B-](F)(F)[N+]1=C(c3ccc[nH]3)C=CC1=C2)NCc1ccc(C(=O)NCCOCCOCCNCC(O)COc2cccc3ccccc23)cc1 (centres unmarked) [Propranolol-3-NB590] |  |  |  |  |  |  |  |  |  |  |  |  |  |  |  |  | NanoBRET Fold Response (GCGR; GCGR, 0.1μM): 1.03; NanoBRET Fold Response (GCGR; GCGR, 1μM): 0.96; NanoBRET Fold Response (CXCR4; CXCR4, 0.1μM): 1.04; NanoBRET Fold Response (CXCR4; CXCR4, 1μM): 1.02; NanoBRET Fold Response (LGR6; LGR6, 0.1μM): 1.26; NanoBRET Fold Response (LGR6; LGR6, 1μM): 1.01; NanoBRET Fold Response (FPR1; FPR1, 0.1μM): 1.02; NanoBRET Fold Response (FPR1; FPR1, 1μM): 0.98
O=C(CCc1ccc2n1[B-](F)(F)[N+]1=C(c3ccc[nH]3)C=CC1=C2)NCc1ccc(C(=O)NCCOCCC(=O)N[C@@H]2CC[C@@]3(O)[C@H]4Cc5ccc(O)c6c5[C@@]3(CCN4CC3CC3)[C@H]2O6)cc1 [Naltrexone-3-NB590] |  |  |  |  |  |  |  |  | 1.06 | 0.92 | 1.30 | 0.84 | 1.22 | 0.79 | 0.90 | 0.98 | 
N#CN=C(NCCCOc1cccc(CN2CCCCC2)c1)NCCNC(=O)CCOCCOCCOCCOCCNC(=O)CCc1ccc2n1[B-](F)(F)[N+]1=C(c3ccc[nH]3)C=CC1=C2 [Aminopotentidine-2-NB590] |  |  |  |  |  |  |  |  | 0.95 | 1.04 | 1.08 | 0.99 | 0.96 | 0.88 | 0.99 | 0.97 | 
COc1ccc2c(n1)c(CCNC(C)=O)cn2CCNC(=O)CCc1ccc2n1[B-](F)(F)[N+]1=C(c3ccc[nH]3)C=CC1=C2 [Azamelatonin-1-NB590] |  |  |  |  |  |  |  |  |  |  |  |  |  |  |  |  | NanoBRET Fold Response (GCGR; 0.1μM tracer): 1.01; NanoBRET Fold Response (GCGR; 1μM tracer): 1.10; NanoBRET Fold Response (CXCR4; 0.1μM tracer): 1.11; NanoBRET Fold Response (CXCR4; 1μM tracer): 0.82; NanoBRET Fold Response (LGR6; 0.1μM tracer): 1.03; NanoBRET Fold Response (LGR6; 1μM tracer): 0.55; NanoBRET Fold Response (FPR1; 0.1μM tracer): 0.96; NanoBRET Fold Response (FPR1; 1μM tracer): 1.09
CC(C)N(CC[C@H](c1ccccc1)c1cc(CCNC(=O)c2ccc(CNC(=O)CCc3ccc4n3[B-](F)(F)[N+]3=C(c5ccc[nH]5)C=CC3=C4)cc2)ccc1O)C(C)C [Tolterodine-BZ-NB590] |  |  |  |  |  |  |  |  | 0.82 | 1.00 | 0.94 | 1.03 | 1.31 | 0.94 | 1.02 | 1.02 | 
CN1CCN(C2=Nc3cc(Cl)ccc3Nc3ccc(CNC(=O)CCOCCOCCOCCOCCNC(=O)CCc4ccc5n4[B-](F)(F)[N+]4=C(c6ccc[nH]6)C=CC4=C5)cc32)CC1 [Clozapine-b-2-NB590] | 1.02 | 1.04 | 1.03 | 1.07 | 1.31 | 0.89 | 0.98 | 1.00 |  |  |  |  |  |  |  |  | 
